Laboratory results: patent US6635652B1, “Azaindolizinone derivatives and cerebral function improvers containing the same as the active ingredient” (Zenyaku Kogyo Kabushiki Kaisha, priority 1999, dated 2003)
Marks after values point to notes of the source that are not given here.

Tests used:
[1] = test system: amnesia of rats induced by scopolamine; test: Effects on scopolamine-induced amnesia (passive avoidance task, oral administration); assay type: in vivo; conditions: 60 min before retention trial, scopolamine hydrobromide 2 mg/kg i.p., passive avoidance latency, male Strague Dawley rats; for inhibition in vivo at 0.01 mg/kg / inhibition in vivo at 1 mg/kg: Rattus norvegicus, po, read-out: Inhibitory rate (%); for inhibition in vivo at 0.01 mg/kg / Inhibitory rate (%): 0.01 mg/kg p.o.; for inhibition in vivo at 1 mg/kg: 1 mg/kg p.o.
From the text: Male rats of the Strague Dawley strain at 8 weeks of age (260±2 g body weight) were used for evaluation through passive avoidance task. The apparatus of passive avoidance task comprises illuminated and dark chambers which are separated from each other by a wall with a door. Floors are constituted by grids made of stainless steel; only the grid in the dark chamber is furnished with wiring for electrification.
Effected on the first and second days of testing was preparative training; each rat was placed in the illuminated chamber and left for 3 minutes to habituate to the apparatus. On the third day of testing, the rats were individually placed in the illuminated chamber and after entering the dark chamber, the door was closed and the floor grid was electrified to deliver electric shock (100 V, 0.4 mA, a period of 0.8 sec). In order to induce amnesia, scopolamine hydrobromide (2 mg/kg) was intraperitoneally injected 20 minutes before the electric shock was delivered. Retention in memory on the electric shock was tested 24 hours later; more specifically, retention in passive avoidance trial was measured in terms of a time interval (latency) from placement of each rat in the illuminated chamber to its entry into the dark chamber. The latency over 300 seconds was recorded as 300 seconds. Respective test compounds were suspended in an aqueous solution of 1% carboxymethyl cellulose and orally administered at a dose of 0.01 or 1 mg/kg 60 minutes before the trial.
Antiamnesic effects of the test compounds were evaluated by inhibitory rate (%) which is calculated by the following formula: [formula]
wherein T stands for latency and SC stands for administration of scopolamine hydrobromide. Experimental results are shown in the following table in which, as to each of the test compounds, only the dose showing higher inhibitory rate was indicated.

melting point	SMILES	inhibition in vivo at 0.01 mg/kg [1] [%]	inhibition in vivo at 1 mg/kg [1] [%]	Inhibitory rate (%) [1]
247 to 248 °C	CC(C)OC1=CC=CN2C1=NC(=O)C2(Cc1ccccc1)Cc1ccccc1 [Compound 1, 3,3-Dibenzyl-8-isopropoxyimidazo[1,2-a]-pyridin-2(3H)-one]	–	50.4	–
236 to 237 °C	O=C1N=C2C(OCC3CC3)=CC=CN2C1(Cc1ccccc1)Cc1ccccc1 [Compound 3, 3,3-Dibenzyl-8-cyclopropylmethyloxyimidazo[1,2-a]-pyridin-2(3H)-one]	–	47.4	–
246 to 248 °C	O=C1N=C2C=CC(Cl)=CN2C1(Cc1ccccc1)Cc1ccccc1 [Compound 4, 3,3-Dibenzyl-6-chloroimidazo[1,2-a]pyridin-2(3H)-one]	–	58.5	–
214 to 215 °C	C=CCOC1=CC=CN2C1=NC(=O)C2(Cc1ccccc1)Cc1ccccc1 [Compound 5, 8-Allyloxy-3,3-dibenzylimidazo[1,2-a]pyridin-2(3H)-one]	–	34.8	–
240 to 241 °C	O=C1N=C2C(OCc3ccccc3)=CC=CN2C1(Cc1ccccc1)Cc1ccccc1 [Compound 6, 3,3-Dibenzyl-8-benzyloxyimidazo[1,2-a]pyridin-2(3H)-one]	58.8	–	–
234 to 235 °C	CC(c1ccccc1)C1(C(C)c2ccccc2)C(=O)N=C2C(OCc3ccccc3)=CC=CN21 (stereo not drawn) [Compound 7, 8-Benzyloxy-3,3-bis(1-phenylethyl)imidazo[1,2-a]-pyridin-2(3H)-one]	–	–	–
237 to 238 °C	CC1=CC2=NC(=O)C(Cc3ccccc3)(Cc3ccccc3)N2C(C)=C1 [Compound 9, 3,3-Dibenzyl-5,7-dimethylimidazo[1,2-a]pyridin-2(3H)-one]	–	66.4	–
260 to 261 °C	O=C1N=C2C(Cl)=CC(Cl)=CN2C1(Cc1ccccc1)Cc1ccccc1 [Compound 12, 3,3-Dibenzyl-6,8-dichloroimidazo[1,2-a]pyridin-2(3H)-one]	–	–	–
234 to 236 °C	O=C1N=C2C(Cl)=CC(C(F)(F)F)=CN2C1(Cc1ccccc1)Cc1ccccc1 [Compound 13, 3,3-Dibenzyl-8-chloro-6-trifluoromethylimidazo[1,2-a]pyridin-2(3H)-one]	57	–	–
290 to 292 °C	O=C1N=C2C=CC=CN2C1(Cc1ccc(F)cc1)Cc1ccc(F)cc1 [Compound 16, 3,3-bis(4-Fluorobenzyl)imidazo[1,2-a]pyridin-2(3H)-one]	55.4	–	–
> 300 °C	CN(C)c1ccc(CC2(Cc3ccc(N(C)C)cc3)C(=O)N=C3C=CC=CN32)cc1 [Compound 17, 3,3-bis(4-Dimethylaminobenzyl)imidazo[1,2-a]pyridin-2(3H)-one]	33.1	–	–
248 to 251 °C	COc1ccc(CC2(Cc3ccc(OC)cc3)C(=O)N=C3C=CC=CN32)cc1 [Compound 19, 3,3-bis(4-Methoxybenzyl)imidazo[1,2-a]pyridin-2(3H)-one]	–	64.3	–
64 to 66 °C	C=CCC1(CC=C)C(=O)N=C2C=CC=CN21 [Compound 23, 3,3-Diallylimidazo[1,2-a]pyridin-2(3H)-one]	53.6	–	–
269 to 271 °C	O=C1N=C2C=CC=CN2C1(Cc1ccc(F)cc1F)Cc1ccc(F)cc1F [Compound 28, 3,3-bis(2,4-Difluorobenzyl)imidazo[1,2-a]pyridin-2(3H)-one]	62.7	–	–
289.5 °C (dec.)	O=C1N=C2C=CC=CN2C1(Cc1cccs1)Cc1cccs1 [Compound 30, 3,3-bis(2-Thienylmethyl)imidazo[1,2-a]pyridin-2(3H)-one]	79.5	–	–
235 to 237 °C	CC(=O)NC1=CC=CN2C1=NC(=O)C2(Cc1ccccc1)Cc1ccccc1 [Compound 31, 8-Acetylamino-3,3-dibenzylimidazo[1,2-a]pyridin-2(3H)-one]	–	60.4	–
205 °C (dec.)	O=C1N=C2C=CC=CN2C1(Cc1ccco1)Cc1ccco1 [Compound 32, 3,3-bis(2-Furylmethyl)imidazo[1,2-a]pyridin-2(3H)-one]	77.4	–	–
200 to 202 °C	CC1(C)C(=O)N=C2C=CC=CN21 [Compound 33, 3,3-Dimethylimidazo[1,2-a]pyridin-2(3H)-one]	–	–	–
100.5 to 102 °C	CCCCC1(CCCC)C(=O)N=C2C=CC=CN21 [Compound 34, 3,3-Dibutylimidazo[1,2-a]pyridin-2(3H)-one]	59.6	–	–
172 to 175 °C	C#CCC1(CC#C)C(=O)N=C2C=CC=CN21 [Compound 35, 3,3-di(2-Propynyl)imidazo[1,2-a]pyridin-2(3H)-one]	30.3	–	–
283 to 285 °C	O=C1N=C2C(O)=CC=CN2C1(Cc1ccccc1)Cc1ccccc1 [Compound 36, 3,3-Dibenzyl-8-hydroxyimidazo[1,2-a]pyridin-2(3H)-one]	30	–	–

Continued, molecule first:

SMILES	melting point	inhibition in vivo at 0.01 mg/kg [1] [%]	inhibition in vivo at 1 mg/kg [1] [%]	Inhibitory rate (%) [1]
COc1cc2c(cc1OC)C(=O)C(CC1CCN(Cc3ccccc3)CC1)C2 (racemic) [Compound C, (R,S)-1-benzyl-4-(5,6-dimethoxy-1-indanon-2-yl)-methylpiperidine, reference compound]	–	12.5	24.7	–
COC1=CC=CN2C1=NC(=O)C2(Cc1ccccc1)Cc1ccccc1 [Compound 2, 3,3-Dibenzyl-8-methoxyimidazo[1,2-a]pyridin-2(3H)-one]	274 to 275 °C	–	53	–
O=C1N=C2C(OC3CCCC3)=CC=CN2C1(Cc1ccccc1)Cc1ccccc1 [Compound 11, 3,3-Dibenzyl-8-cyclopentyloxyimidazo[1,2-a]pyridin-2(3H)-one]	268 to 269 °C	–	48	–
Cc1cccc(CC2(Cc3cccc(C)c3)C(=O)N=C3C(OCc4ccccc4)=CC=CN32)c1 [Compound 14, 8-Benzyloxy-3,3-bis(3-methylbenzyl)imidazo[1,2-a]pyridin-2(3H)-one]	233 to 235 °C	–	56.7	–
CC1=CC=CN2C1=NC(=O)C2(Cc1ccncc1)Cc1ccncc1 [Compound 15, 8-Methyl-3,3-bis(4-pyridylmethyl)imidazo[1,2-a]-pyridin-2(3H)-one]	228 to 230 °C	–	–	–
O=C1N=C2C=CC=CN2C1(Cc1cccc(Cl)c1)Cc1cccc(Cl)c1 [Compound 18, 3,3-bis(3-Chlorobenzyl)imidazo[1,2-a]pyridin-2(3H)-one]	271 to 272 °C	–	58.7	–
O=C1N=C2C=CC=CN2C1(Cc1ccc(-c2ccccc2)cc1)Cc1ccc(-c2ccccc2)cc1 [Compound 20, 3,3-bis(4-Biphenylmethyl)imidazo[1,2-a]pyridin-2(3H)-one]	–	–	–	30.2* %
N#Cc1ccc(CC2(Cc3ccc(C#N)cc3)C(=O)N=C3C=CC=CN32)cc1 [Compound 21, 3,3-bis(4-Cyanobenzyl)imidazo[1,2-a]pyridin-2(3H)-one]	294 °C (dec.)	58	–	–
O=C1N=C2C=CC=CN2C1(Cc1ccc(O)cc1)Cc1ccc(O)cc1 [Compound 22, 3,3-bis(4-Hydroxybenzyl)imidazo[1,2-a]pyridin-2(3H)-one]	276.5 to 277.5 °C	37.4	–	–
O=C1N=C2C=CC=CN2C12Cc1ccccc1C2 [Compound 24, Spiro[imidazo[1,2-a]pyridin-2(3H)-one-3,2′-indan]]	–	–	–	56.8** %
C=CCC1(CC=C)C(=O)N=C2C(OCc3ccccc3)=CC=CN21 [Compound 25, 3,3-Diallyl-8-benzyloxyimidazo[1,2-a]pyridin-2(3H)-one]	160 to 162 °C	–	–	–
O=C1N=C2C=CC=CN2C1(CCCc1ccccc1)CCCc1ccccc1 [Compound 26, 3,3-bis(3-Phenyl-1-propyl)imidazo[1,2-a]pyridin-2(3H)-one]	227 to 228 °C	53.5	–	–
O=C1N=C2C=CC=CN2C12Cc1cccc3cccc(c13)C2 [Compound 27, Spiro[imidazo[1,2-a]pyridin-2(3H)-one-3,2′-[2,3]dihydrophenalene]]	–	–	–	60.7* %
CCCC1(CCC)C(=O)N=C2C=CC=CN21 [Compound 29, 3,3-Dipropylimidazo[1,2-a]pyridin-2(3H)-one]	73 to 75 °C	–	115	–
O=C1N(c2ccccc2)c2ccccc2C1(Cc1ccncc1)Cc1ccncc1 [Compound A, 3,3-bis(4-pyridylmethyl)-1-phenylindolin-2-one, reference compound]	–	8.8	20.9	–
Nc1c2c(nc3ccccc13)CCCC2 [Compound B, 9-amino-1,2,3,4-tetrahydro-acridine, reference compound]	–	24.1	54.9	–
